# Data taken from patent US20070281938A1, “Inhibitors of 11-Beta-Hydroxy Steroid Dehydrogenase Type 1” (Amgen Inc., priority 2004, published 2007).
# Target: T1, human 11-β-hydroxysteroid dehydrogenase type-1 enzyme (11-β-HSD1) (Homo sapiens, UniProt P28845)
# T1 construct: made in house; host or cells: Pichia pastoris (cell homogenate or microsomes)
# Experiment: Scintillation Proximity Assay, 11-β-HSD1 enzyme assay (Ki)
# Format: biochemical
# Conditions: human 11-β-HSD1 expressed in Pichia pastoris; Ki calculated from IC50 (Cheng-Prusoff)
# Description: [1,2(n)—^3H]-cortisone was purchased from Amersham Pharmacia Biotech. Anti-cortisol monoclonal mouse antibody, clone 6D6.7 was obtained from Immunotech and Scintillation proximity assay (SPA) beads coated with monoclonal antimouse antibodies were from Amersham Pharmacia Biotech. NADPH, tetrasodium salt was from Calbiochem and glucose-6-phosphate (G-6-P) was supplied by Sigma. The human 11-β-hydroxysteroid dehydrogenase type-1 enzyme (11-β-HSD1) was expressed in Pichiapastoris. 18-β-glycyrrhetinic acid (GA) was obtained from Sigma. The serial dilutions of the compounds were performed on a Tecan Genesis RSP 150. Compounds to be tested were dissolved in DMSO (1 mM) and diluted in 50 mM Tris-HCl, pH 7.2 containing 1 mM EDTA.
# The multiplication of plates was done on a WallacQuadra. The amount of the product [^3H]-cortisol, bound to the beads was determined in a Packard, Top Count microplate liquid scintillation counter.
# The 11-β-HSD1 enzyme assay was carried out in 96 well microtiter plates (Packard, Optiplate) in a total well volume of 220 μL and contained 30 mM Tris-HCl, pH 7.2 with 1 mM EDTA, a substrate mixture tritiated Cortisone/NADPH (175 nM/181 μM), G-6-P (1 mM) and inhibitors in serial dilutions (9 to 0.15 μM). […]
# The plates were covered with plastic film and incubated on a shaker for 30 minutes, at room temperature, before counting. The amount of [^3H]-cortisol, bound to the beads was determined in a microplate liquid scintillation counter. […] The Ki value is calculated from IC50 and the Km value is calculated using the Cheng Prushoff equation (with reversible inhibition that follows the Michaelis-Menten equation): […] [Cheng, Y. C.; Prushoff, W. H. Biochem. Pharmacol. 1973, 22, 3099-3108]. The IC50 is measured experimentally in an assay wherein the decrease of the turnover of cortisone to cortisol is dependent on the inhibition potential of each substance. […]
# T1 sequence (P28845 whole entry): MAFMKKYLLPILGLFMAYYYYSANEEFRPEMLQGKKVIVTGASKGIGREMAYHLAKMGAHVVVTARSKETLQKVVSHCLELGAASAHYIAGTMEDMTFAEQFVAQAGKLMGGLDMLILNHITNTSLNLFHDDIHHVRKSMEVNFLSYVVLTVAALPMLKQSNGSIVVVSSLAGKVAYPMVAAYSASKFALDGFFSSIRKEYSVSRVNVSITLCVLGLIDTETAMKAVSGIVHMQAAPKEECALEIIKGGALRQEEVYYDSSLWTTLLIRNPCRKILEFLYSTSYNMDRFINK
row,Ki,Compound
1,250 nM,"O=C1N=C(NC2CCCCCC2)SC12CCC2 [Example 10, 6-(Cycloheptylamino)-5-thia-7-azaspiro[3.4]oct-6-en-8-one]"
2,107 nM,"CC1(C)SC(NCC2CCCCC2)=NC1=O [Example 14, 2-[(cyclohexylmethyl)amino]-5,5-dimethyl-1,3-thiazol-4(5H)-one]"
3,174 nM,"CC(C)C1SC(NC2(c3ccc(Cl)cc3)CCC2)=NC1=O (stereo not drawn) [Example 48, 2-{[1-(4-Chlorophenyl)cyclobutyl]amino}-5-isopropyl-1,3-thiazol-4(5H)-one]"
